Measured values as given in US9643980B2, “Benzoxazepin oxazolidinone compounds and methods of use” (Genentech, Inc., priority 2015, dated 2017).
Where two headings read alike, the source gives them in different places.

Key:
PI3Kδ = PI3Kδ (Homo sapiens, UniProt O00329); assay: PI3K binding assay (lipid kinase reaction, ADP-Glo), PI3K delta; type: biochemical
Description: (§1) Reactions are carried out using the following conditions for each PI3K isoform as in Table 5.
(§2) All reactions are carried out at room temperature. […] The reaction is started by the addition of 2 μL ATP/MgCl2. The kinase reaction buffer contains 50 mM HEPES, 50 mM NaCl 3 mM MgCl2, 0.01% BSA, 1% DMSO, and enzyme and substrate concentrations as indicated in the above table. The reaction is stopped by the addition of 10 μL ADP-Glo reagent. Plates are read in a Perkin Elmer Envision system using luminescence mode. 10 point dose response curves are generated for each test compound. Ki values for each compound are determined using the Morrison Equation.

P-PRAS40 SW48(E545K) = assay: Inhibition of P-PRAS40 in SW48 isogenic cells, PI3Kα mutant E545K; type: cell-based; conditions: for EC50: Homo sapiens
Description: (§3) All statistics were performed using KaleidaGraph Software (version 4.1.3). A Student t-Test was performed using unpaired data with equal variance to compare activity against mutant cells and wild-type cells. P<0.05 is considered to be significant.
(§4) The following assays are intended for determining the cellular potency and mutant selectivity of small molecule PI3Kα inhibitors. […] Mutant selectivity of PI3Kα inhibitors is determined by EC50 potency ratios in the WT vs. E545K cell lines and WT vs. H1047R cell lines.
(§5) The three cell lines (WT, E545K, and H1047R) are plated and assayed in parallel. The following day, test compounds are serially diluted in dimethyl sulfoxide (DMSO) and added to cells (final DMSO concentration 0.5%). […] Cell lysates are added to assay plates pre-coated with antibodies against phosphorylated PRAS40. Phosphorylated PRAS40 in samples are allowed to bind to the capture antibodies overnight at 4° C. The detection antibody (anti-total PRAS40, labeled with an electrochemiluminescent SULFO-TAG) is added to the bound lysate and incubated for 1 hour at room temperature. The MSD Read Buffer is added such that when a voltage is applied to the plate electrodes, the labels bound to the electrode surface emit light. The MSD Sector Instrument measures the intensity of the light, and quantitatively measures the amount of phosphor-PRAS40 in the sample. Percent inhibition of PRAS40 phosphorylation by varying concentrations of test compounds is calculated relative to untreated controls. EC50 values are calculated using the 4 parameter logistic nonlinear regression dose-response model.

P-PRAS40 SW48(parental) = assay: Inhibition of P-PRAS40 in SW48 isogenic cells, PI3Kα wild-type (parental); conditions: Homo sapiens, SW48, 24 h
PI3Kγ = PI3Kγ (Homo sapiens, UniProt P48736); assay: PI3K binding assay (lipid kinase reaction, ADP-Glo), PI3K gamma; type: biochemical; conditions: Table 2A; first value of cell (ADP-Glo, Example 901)
Chain of PI3Kγ (P48736 whole entry): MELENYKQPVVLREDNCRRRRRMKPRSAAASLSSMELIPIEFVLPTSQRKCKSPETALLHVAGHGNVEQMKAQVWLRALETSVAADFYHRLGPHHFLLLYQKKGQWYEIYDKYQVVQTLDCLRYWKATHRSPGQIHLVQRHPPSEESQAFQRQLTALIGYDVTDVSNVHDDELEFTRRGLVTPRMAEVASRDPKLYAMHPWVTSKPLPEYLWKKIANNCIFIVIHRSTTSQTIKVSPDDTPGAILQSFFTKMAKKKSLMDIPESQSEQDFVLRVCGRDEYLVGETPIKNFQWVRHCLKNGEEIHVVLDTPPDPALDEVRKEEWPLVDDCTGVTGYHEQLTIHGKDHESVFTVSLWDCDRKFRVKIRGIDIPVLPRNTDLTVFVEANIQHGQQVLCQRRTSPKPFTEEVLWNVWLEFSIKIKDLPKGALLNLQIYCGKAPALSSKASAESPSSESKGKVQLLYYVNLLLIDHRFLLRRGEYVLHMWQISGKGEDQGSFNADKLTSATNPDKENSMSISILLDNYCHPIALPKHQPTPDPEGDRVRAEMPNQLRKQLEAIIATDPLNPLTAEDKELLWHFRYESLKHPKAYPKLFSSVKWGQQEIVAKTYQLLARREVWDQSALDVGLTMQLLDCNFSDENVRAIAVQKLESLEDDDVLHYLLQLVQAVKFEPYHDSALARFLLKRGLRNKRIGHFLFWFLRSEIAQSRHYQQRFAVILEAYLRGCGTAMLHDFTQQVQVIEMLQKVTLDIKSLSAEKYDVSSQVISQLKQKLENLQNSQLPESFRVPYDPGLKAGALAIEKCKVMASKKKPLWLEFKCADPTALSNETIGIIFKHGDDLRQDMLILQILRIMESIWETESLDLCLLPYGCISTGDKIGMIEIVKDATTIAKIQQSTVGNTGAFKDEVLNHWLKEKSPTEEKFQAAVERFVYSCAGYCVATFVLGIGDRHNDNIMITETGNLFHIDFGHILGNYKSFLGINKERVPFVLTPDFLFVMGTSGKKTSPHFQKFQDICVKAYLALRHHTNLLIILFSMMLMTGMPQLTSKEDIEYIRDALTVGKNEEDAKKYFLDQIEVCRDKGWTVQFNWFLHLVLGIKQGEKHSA
Description: as §1, §2

PI3Kβ = PI3Kβ (Homo sapiens, UniProt P42338); assay: PI3K binding assay (lipid kinase reaction, ADP-Glo), PI3K beta; type: biochemical; conditions: Table 2A; first value of cell (ADP-Glo, Example 901)
Chain of PI3Kβ (P42338 whole entry): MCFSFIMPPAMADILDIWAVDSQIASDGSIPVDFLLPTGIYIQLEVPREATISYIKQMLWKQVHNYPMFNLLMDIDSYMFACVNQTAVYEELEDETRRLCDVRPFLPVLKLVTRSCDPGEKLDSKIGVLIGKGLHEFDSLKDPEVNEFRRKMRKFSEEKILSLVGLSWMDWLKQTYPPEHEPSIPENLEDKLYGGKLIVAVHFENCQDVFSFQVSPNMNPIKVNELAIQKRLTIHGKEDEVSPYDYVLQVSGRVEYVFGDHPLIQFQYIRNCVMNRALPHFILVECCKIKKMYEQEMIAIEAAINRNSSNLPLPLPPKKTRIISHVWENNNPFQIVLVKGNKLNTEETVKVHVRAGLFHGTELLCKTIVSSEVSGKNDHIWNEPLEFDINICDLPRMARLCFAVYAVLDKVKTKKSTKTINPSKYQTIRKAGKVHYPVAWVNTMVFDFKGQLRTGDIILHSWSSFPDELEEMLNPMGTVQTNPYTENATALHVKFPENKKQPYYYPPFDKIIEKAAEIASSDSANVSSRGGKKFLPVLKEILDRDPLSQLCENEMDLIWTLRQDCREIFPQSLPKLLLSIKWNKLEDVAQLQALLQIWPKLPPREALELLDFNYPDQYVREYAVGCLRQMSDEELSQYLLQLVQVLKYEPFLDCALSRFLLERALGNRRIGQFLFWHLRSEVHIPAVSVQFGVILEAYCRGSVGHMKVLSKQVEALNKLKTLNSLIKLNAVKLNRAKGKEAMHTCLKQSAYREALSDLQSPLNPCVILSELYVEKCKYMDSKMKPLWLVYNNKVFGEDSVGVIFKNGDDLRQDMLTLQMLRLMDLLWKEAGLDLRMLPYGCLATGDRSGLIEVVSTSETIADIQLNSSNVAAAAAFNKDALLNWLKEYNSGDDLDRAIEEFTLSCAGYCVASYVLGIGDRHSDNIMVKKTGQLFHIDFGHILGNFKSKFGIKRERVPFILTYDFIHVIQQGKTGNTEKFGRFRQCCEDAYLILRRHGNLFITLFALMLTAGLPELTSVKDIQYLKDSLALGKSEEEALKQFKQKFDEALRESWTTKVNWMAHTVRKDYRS
Chain of PI3Kβ (P27986 whole entry partner): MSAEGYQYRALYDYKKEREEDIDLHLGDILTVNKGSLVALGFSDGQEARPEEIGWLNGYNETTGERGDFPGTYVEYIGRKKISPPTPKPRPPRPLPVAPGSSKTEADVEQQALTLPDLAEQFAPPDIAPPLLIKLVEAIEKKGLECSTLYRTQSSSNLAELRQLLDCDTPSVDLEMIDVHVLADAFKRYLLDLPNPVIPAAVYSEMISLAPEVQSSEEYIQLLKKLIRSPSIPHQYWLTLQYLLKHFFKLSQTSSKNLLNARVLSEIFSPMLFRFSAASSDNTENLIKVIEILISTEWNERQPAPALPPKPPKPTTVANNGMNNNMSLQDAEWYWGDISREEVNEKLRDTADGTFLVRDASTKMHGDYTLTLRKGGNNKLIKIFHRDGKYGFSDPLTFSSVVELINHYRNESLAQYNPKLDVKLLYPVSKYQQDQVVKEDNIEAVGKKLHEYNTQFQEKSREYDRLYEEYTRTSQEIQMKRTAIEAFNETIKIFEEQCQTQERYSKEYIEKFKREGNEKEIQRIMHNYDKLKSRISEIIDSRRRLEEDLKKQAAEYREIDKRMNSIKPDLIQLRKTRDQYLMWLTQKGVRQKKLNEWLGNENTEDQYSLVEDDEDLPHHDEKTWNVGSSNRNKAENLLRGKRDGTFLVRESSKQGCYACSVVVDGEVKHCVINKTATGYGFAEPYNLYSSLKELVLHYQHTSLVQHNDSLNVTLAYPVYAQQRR
Description: as §1, §2

PI3Kα = PI3Kα (Homo sapiens, UniProt P42336); assay: PI3K binding assay (lipid kinase reaction, ADP-Glo), PI3K alpha; type: biochemical
Chain of PI3Kα (P42336 whole entry): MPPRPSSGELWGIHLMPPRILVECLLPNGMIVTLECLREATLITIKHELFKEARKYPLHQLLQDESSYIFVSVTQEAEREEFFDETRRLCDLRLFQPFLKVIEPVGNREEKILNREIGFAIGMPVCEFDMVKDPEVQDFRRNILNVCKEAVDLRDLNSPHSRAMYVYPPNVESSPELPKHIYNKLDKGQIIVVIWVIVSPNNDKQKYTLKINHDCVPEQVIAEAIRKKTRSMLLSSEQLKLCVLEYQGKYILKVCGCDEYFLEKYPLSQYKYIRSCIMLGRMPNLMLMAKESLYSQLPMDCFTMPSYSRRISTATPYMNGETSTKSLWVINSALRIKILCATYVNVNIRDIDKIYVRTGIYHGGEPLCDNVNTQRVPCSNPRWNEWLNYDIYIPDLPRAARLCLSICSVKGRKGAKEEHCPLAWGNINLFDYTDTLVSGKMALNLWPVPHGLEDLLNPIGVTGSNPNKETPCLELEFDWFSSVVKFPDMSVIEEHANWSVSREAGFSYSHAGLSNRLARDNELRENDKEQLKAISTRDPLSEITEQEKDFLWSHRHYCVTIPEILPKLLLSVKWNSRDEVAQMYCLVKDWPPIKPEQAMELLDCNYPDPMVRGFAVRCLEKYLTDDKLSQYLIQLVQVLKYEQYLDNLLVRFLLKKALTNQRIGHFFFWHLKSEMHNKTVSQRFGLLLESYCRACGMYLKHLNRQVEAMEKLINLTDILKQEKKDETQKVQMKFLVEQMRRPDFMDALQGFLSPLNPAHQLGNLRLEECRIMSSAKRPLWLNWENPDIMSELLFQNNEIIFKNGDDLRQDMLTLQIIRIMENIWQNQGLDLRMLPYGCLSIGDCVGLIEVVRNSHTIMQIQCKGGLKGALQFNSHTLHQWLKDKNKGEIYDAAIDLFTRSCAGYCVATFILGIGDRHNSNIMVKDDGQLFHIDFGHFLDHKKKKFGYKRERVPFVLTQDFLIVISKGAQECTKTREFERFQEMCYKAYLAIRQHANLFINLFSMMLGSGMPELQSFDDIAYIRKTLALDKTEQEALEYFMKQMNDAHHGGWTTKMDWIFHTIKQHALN
Chain of PI3Kα (P27986 whole entry partner): as the sequence (P27986 whole entry partner) above
Description: as §1, §2

P-PRAS40 SW48(H1047R) = assay: Inhibition of P-PRAS40 in SW48 isogenic cells, PI3Kα mutant H1047R; type: cell-based; conditions: for EC50: Homo sapiens
Description: as §3, §4, §5

[1] = test system: KPL4 cells (PI3Kα mutant H1047R); assay: In vitro cell viability assay (Cell Titer-Glo), KPL4; conditions: KPL4, 96 h, read-out: KPL4 antiproliferative EC50 (μM)
[2] = Table 2A, first value of cell (ADP-Glo, Example 901)
[3] = SW48, Table 3A, 24 hours of compound treatment, geometric mean, read-out: P-PRAS40 SW48(E545K) EC50
[4] = Table 3A, EC50 potency ratio, p value (Student t-Test) given
[5] = read-out: P-PRAS40 SW48(parental) EC50 (nM)
[6] = Table 2A, first value of cell (ADP-Glo, Example 901), read-out: PI3Kα Ki
[7] = Table 2A, selectivity ratio (fold)
[8] = SW48, Table 3A, 24 hours of compound treatment, geometric mean, read-out: P-PRAS40 SW48(H1047R) EC50
[9] = Table 2B comparator compounds, first value of cell (ADP-Glo)
[10] = SW48, Table 3B comparator compounds, 24 hours of compound treatment, read-out: P-PRAS40 SW48(E545K) EC50
[11] = read-out: P-PRAS40 SW48(parental) EC50 (μM)
[12] = Table 2B comparator compounds, first value of cell (ADP-Glo), read-out: PI3Kα Ki
[13] = SW48, Table 3B comparator compounds, 24 hours of compound treatment, read-out: P-PRAS40 SW48(H1047R) EC50

Chain of PI3Kδ (O00329 whole entry, canonical isoform): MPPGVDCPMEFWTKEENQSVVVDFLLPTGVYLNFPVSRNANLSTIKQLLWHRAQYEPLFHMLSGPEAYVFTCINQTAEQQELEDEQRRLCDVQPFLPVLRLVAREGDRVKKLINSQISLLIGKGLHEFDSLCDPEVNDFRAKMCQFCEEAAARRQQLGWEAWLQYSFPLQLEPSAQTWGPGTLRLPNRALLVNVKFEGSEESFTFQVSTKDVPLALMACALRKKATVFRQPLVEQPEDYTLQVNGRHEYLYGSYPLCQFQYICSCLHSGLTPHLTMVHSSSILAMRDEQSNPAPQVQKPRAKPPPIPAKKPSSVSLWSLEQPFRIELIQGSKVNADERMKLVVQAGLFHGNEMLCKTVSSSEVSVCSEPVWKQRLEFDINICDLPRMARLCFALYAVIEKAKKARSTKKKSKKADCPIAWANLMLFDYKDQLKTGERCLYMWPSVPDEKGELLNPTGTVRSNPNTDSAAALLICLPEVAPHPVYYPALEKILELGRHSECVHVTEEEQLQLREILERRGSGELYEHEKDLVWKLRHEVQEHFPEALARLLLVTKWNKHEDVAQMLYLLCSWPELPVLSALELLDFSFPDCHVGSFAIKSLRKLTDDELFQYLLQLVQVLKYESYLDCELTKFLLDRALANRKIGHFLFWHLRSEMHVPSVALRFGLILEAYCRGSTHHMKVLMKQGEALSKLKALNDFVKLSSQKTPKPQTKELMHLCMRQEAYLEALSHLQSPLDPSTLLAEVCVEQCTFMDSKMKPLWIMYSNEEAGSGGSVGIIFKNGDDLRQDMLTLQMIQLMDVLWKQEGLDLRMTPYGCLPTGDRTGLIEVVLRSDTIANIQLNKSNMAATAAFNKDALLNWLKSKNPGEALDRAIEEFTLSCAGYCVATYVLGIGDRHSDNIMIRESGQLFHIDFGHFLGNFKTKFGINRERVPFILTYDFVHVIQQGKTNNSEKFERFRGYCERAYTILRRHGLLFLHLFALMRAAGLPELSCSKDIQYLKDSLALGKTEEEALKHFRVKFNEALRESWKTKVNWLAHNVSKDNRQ
Chain of PI3Kδ (P27986 whole entry partner, canonical isoform): as the sequence (P27986 whole entry partner) above

SMILES	Ki (PI3Kδ; [2])	EC50 (P-PRAS40 SW48(E545K); [3])	Ki (PI3Kγ)	Ki (PI3Kβ)	Ki (PI3Kα; [6])	EC50 (P-PRAS40 SW48(H1047R); [8])	Ki (PI3Kδ; [9])	EC50 (P-PRAS40 SW48(E545K); [10])	EC50 (P-PRAS40 SW48(H1047R); [13])	Fold Selectivity for SW48(E545K) vs. SW48(parental) (P-PRAS40 SW48(E545K); [4])	EC50 (P-PRAS40 SW48(parental); [5])	Selectivity for PI3Kα vs. PI3K-β (PI3Kα; [7])	Selectivity for PI3Kα vs. PI3Kγ (PI3Kα; [7])	Selectivity for PI3Kα vs. PI3Kδ (PI3Kα; [7])	Fold Selectivity for SW48(H1047R) vs. SW48(parental) (P-PRAS40 SW48(H1047R); [4])	EC50 (P-PRAS40 SW48(parental); [11])	also measured
NC(=O)[C@@H]1CCCN1c1ccc2c(c1)OCCn1cc(N3C(=O)OC[C@H]3CF)nc1-2 [Compound 108, (S)-1-(2-((S)-4-(Fluoromethyl)-2-oxooxazolidin-3-yl)-5,6-dihydrobenzo[f]imidazo[1,2-d][1,4]oxazepin-9-yl)pyrrolidine-2-carboxamide]	1.97 nM	0.0029 µM	23.9 nM	60.8 nM	0.043 nM	0.0026 µM	–	–	–	2.1 (p < 0.001))	6.2 nM	1421	557	46	2.2 (p < 0.001)	–	–
CC(C)n1ncnc1-c1cn2c(n1)-c1ccc(N3CCC[C@H]3C(N)=O)cc1OCC2 [Compound 375, reference compound]	–	–	–	–	–	–	0.354 nM	–	–	–	–	–	–	–	–	1.6 nM	Fold Selectivity for SW48(E545K) vs. SW48(parental) (P-PRAS40 SW48(E545K)): 1.4 (p = 0.23); EC50 (P-PRAS40 SW48(E545K); SW48, 24 h, read-out: P-PRAS40 SW48(E545K) EC50 (μM)): 0.0011 µM; Ki (PI3Kα): 0.016 nM; Fold Selectivity for SW48(H1047R) vs. SW48(parental) (P-PRAS40 SW48(H1047R)): 1.5 (p = 0.20); EC50 (P-PRAS40 SW48(H1047R); SW48, 24 h, read-out: P-PRAS40 SW48(H1047R) EC50 (μM)): 0.001 µM
C[C@H](Oc1ccc2c(c1)OCCn1cc(-c3ncnn3CC(F)(F)F)nc1-2)C(N)=O [Compound 486, reference compound]	–	–	–	–	–	–	2.5 nM	0.0055 µM	0.0059 µM	–	–	–	–	–	–	6.2 nM	Fold Selectivity for SW48(E545K) vs. SW48(parental) (P-PRAS40 SW48(E545K); Table 3B, EC50 potency ratio): 1.1 (p = 0.44); Ki (PI3Kα; [12]): 0.186 nM; Fold Selectivity for SW48(H1047R) vs. SW48(parental) (P-PRAS40 SW48(H1047R); Table 3B, EC50 potency ratio): 1.0 (p = 0.74)
C[C@H](Oc1ccc2c(c1)OCCn1cc(N3C(=O)OC[C@H]3C(F)F)nc1-2)C(N)=O [Compound 107, (S)-2-((2-((S)-4-(Difluoromethyl)-2-oxooxazolidin-3-yl)-5,6-dihydrobenzo[f]imidazo[1,2-d][1,4]oxazepin-9-yl)oxy)propanamide]	44.2 nM	0.0234 µM	136 nM	341 nM	0.853 nM	0.0256 µM	–	–	–	3.0 (p < 0.001)	69.2 nM	400	159	52	2.7 (p < 0.001)	–	–
NC(=O)[C@@H]1CCCN1c1ccc2c(c1)OCCn1cc(N3C(=O)OC[C@H]3C(F)F)nc1-2 [Compound 106, (S)-1-(2-((S)-4-(Difluoromethyl)-2-oxooxazolidin-3-yl)-5,6-dihydrobenzo[f]imidazo[1,2-d][1,4]oxazepin-9-yl)pyrrolidine-2-carboxamide]	1.82 nM	0.0027 µM	20.4 nM	53.8 nM	0.053 nM	0.0029 µM	–	–	–	2.1 (p < 0.001)	5.5 nM	1008	384	34	1.9 (p < 0.001)	–	–
CC[C@@H]1COC(=O)N1c1cn2c(n1)-c1ccc(O[C@@H](C)C(N)=O)cc1OCC2 [Compound 104, (S)-2-((2-((R)-4-Ethyl-2-oxooxazolidin-3-yl)-5,6-dihydrobenzo[f]imidazo[1,2-d][1,4]oxazepin-9-yl)oxy)propanamide]	50 nM	0.115 µM	287 nM	847 nM	2.69 nM	0.109 µM	–	–	–	2.5 (p = 0.003)	335 nM	–	–	–	2.6 (p = 0.003)	–	Selectivity for PI3Kα vs. PI3K-β (PI3Kα): 315; Selectivity for PI3Kα vs. PI3Kγ (PI3Kα): 107; Selectivity for PI3Kα vs. PI3Kδ (PI3Kα): 19
CC(C)n1ncnc1-c1cn2c(n1)-c1ccc(O[C@@H](C)C(N)=O)cc1OCC2 [Compound 436, reference compound]	–	–	–	–	–	–	7.72 nM	–	–	–	–	–	–	–	–	–	EC50 [1]: 0.05 µM

Further lines, with some results ahead:

Ki (PI3Kδ; [2])	EC50 (P-PRAS40 SW48(E545K); [3])	Ki (PI3Kγ)	Ki (PI3Kβ)	Ki (PI3Kα; [6])	EC50 (P-PRAS40 SW48(H1047R); [8])	Ki (PI3Kδ; [9])	EC50 (P-PRAS40 SW48(E545K); [10])	EC50 (P-PRAS40 SW48(H1047R); [13])	SMILES	Fold Selectivity for SW48(E545K) vs. SW48(parental) (P-PRAS40 SW48(E545K); [4])	EC50 (P-PRAS40 SW48(parental); [5])	Selectivity for PI3Kα vs. PI3K-β (PI3Kα; [7])	Selectivity for PI3Kα vs. PI3Kγ (PI3Kα; [7])	Selectivity for PI3Kα vs. PI3Kδ (PI3Kα; [7])	Fold Selectivity for SW48(H1047R) vs. SW48(parental) (P-PRAS40 SW48(H1047R); [4])	EC50 (P-PRAS40 SW48(parental); [11])	also measured
–	–	–	–	–	–	0.92 nM	0.0768 µM	0.0795 µM	CC(C)(O)Cn1cc(-c2ccc3c(c2)OCCc2sc(N4C(=O)OCC4(C)C)nc2-3)cn1 [356 (U.S. Pat. No. 8,263,633), reference compound]	–	–	–	–	–	–	310 nM	Fold Selectivity for SW48(E545K) vs. SW48(parental) (P-PRAS40 SW48(E545K); Table 3B, EC50 potency ratio): 4.0 (p < 0.001); Selectivity for PI3Kα vs. PI3Kδ (PI3Kα): 1; Ki (PI3Kα; [12]): 0.967 nM; Fold Selectivity for SW48(H1047R) vs. SW48(parental) (P-PRAS40 SW48(H1047R); Table 3B, EC50 potency ratio): 3.9 (p < 0.001)
–	–	–	–	–	–	0.422 nM	0.0008 µM	0.0009 µM	NC(=O)[C@@H]1CCCN1c1ccc2c(c1)OCCn1cc(-c3ncnn3CC(F)(F)F)nc1-2 [Compound 469, reference compound]	–	–	–	–	–	–	1 nM	Fold Selectivity for SW48(E545K) vs. SW48(parental) (P-PRAS40 SW48(E545K); Table 3B, EC50 potency ratio): 1.8 (p = 0.04); Ki (PI3Kα; [12]): 0.025 nM; Selectivity for PI3Kα vs. PI3Kδ (PI3Kα; Table 2B comparator compounds, selectivity ratio (fold)): 17; Fold Selectivity for SW48(H1047R) vs. SW48(parental) (P-PRAS40 SW48(H1047R); Table 3B, EC50 potency ratio): 1.6 (p = 0.11)
–	–	–	–	–	–	11.3 nM	0.0159 µM	0.018 µM	CCn1ncnc1-c1cn2c(n1)-c1ccc(O[C@@H](C)C(N)=O)cc1OCC2 [Compound 544, reference compound]	–	–	–	–	–	–	47.7 nM	–
30.3 nM	0.0332 µM	126 nM	376 nM	0.993 nM	0.028 µM	–	–	–	C[C@H](Oc1ccc2c(c1)OCCn1cc(N3C(=O)OC[C@H]3CF)nc1-2)C(N)=O [Compound 109, (S)-2-((2-((S)-4-(Fluoromethyl)-2-oxooxazolidin-3-yl)-5,6-dihydrobenzo[f]imidazo[1,2-d][1,4]oxazepin-9-yl)oxy)propanamide]	2.2 (p = 0.002)	74 nM	–	–	–	2.6 (p < 0.001)	–	Selectivity for PI3Kα vs. PI3K-β (PI3Kα): 379; Selectivity for PI3Kα vs. PI3Kγ (PI3Kα): 127; Selectivity for PI3Kα vs. PI3Kδ (PI3Kα): 31
18.7 nM	0.0328 µM	72.8 nM	392 nM	0.803 nM	0.0322 µM	–	–	–	CC(C)[C@@H]1COC(=O)N1c1cn2c(n1)-c1ccc(O[C@@H](C)C(N)=O)cc1OCC2 [Compound 101, (S)-2-((2-((R)-4-isopropyl-2-oxooxazolidin-3-yl)-5,6-dihydrobenzo[f]imidazo[1,2-d][1,4]oxazepin-9-yl)oxy)propanamide]	2.1 (p < 0.001)	68.2 nM	488	91	23	2.1 (p < 0.001)	–	–
–	–	–	–	–	–	24.1 nM	0.169 µM	0.184 µM	C[C@H](Oc1ccc2c(c1)OCCn1cc(-c3ncnn3C)nc1-2)C(N)=O [Compound 540, reference compound]	–	–	–	–	–	–	381 nM	–
